According to patent US6060516A, “N^1 -propargylhydrazines, N^2 -propargylhydrazines and their analogs for the treatment of depression, anxiety and neurodegeneration” (CV Technologies, Inc., priority 1998, dated 2000):

Experiments:
[1] = molecular target: T1, rat brain monoamine oxidase-B (Rattus norvegicus, UniProt P19643); assay: Monoamine oxidase-B inhibiting activity in vitro (radiochemical, β-phenylethylamine substrate, rat brain homogenate); format: biochemical; conditions: for inhibition at 100 µM: 1 × 10^-4 M; for inhibition at 10 µM: 1 × 10^-5 M; for inhibition at 1 µM: 1 × 10^-6 M; for inhibition at 0.1 µM: 1 × 10^-7 M; for inhibition at 0.01 µM: 1 × 10^-8 M
T1 construct: appropriately diluted homogenates of rat brain or liver; from tissue; host or cells: rat brain or liver homogenate
T1 sequence (P19643 1-520): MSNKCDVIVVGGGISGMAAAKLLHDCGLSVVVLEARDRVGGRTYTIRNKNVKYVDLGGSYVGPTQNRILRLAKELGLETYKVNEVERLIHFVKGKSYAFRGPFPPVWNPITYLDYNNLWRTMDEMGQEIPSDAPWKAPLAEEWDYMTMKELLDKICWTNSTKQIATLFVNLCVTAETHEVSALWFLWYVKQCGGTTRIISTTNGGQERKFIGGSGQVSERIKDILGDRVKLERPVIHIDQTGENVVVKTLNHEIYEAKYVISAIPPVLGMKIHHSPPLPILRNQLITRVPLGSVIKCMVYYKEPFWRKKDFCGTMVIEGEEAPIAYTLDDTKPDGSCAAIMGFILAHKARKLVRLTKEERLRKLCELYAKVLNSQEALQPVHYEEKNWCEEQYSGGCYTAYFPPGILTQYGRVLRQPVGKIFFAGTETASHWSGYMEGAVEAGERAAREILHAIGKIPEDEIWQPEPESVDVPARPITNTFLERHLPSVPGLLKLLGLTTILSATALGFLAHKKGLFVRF
Method: Radiolabelled β-phenylethylamine was employed as a substrate for monoamine oxidase-B. Various concentrations of the compounds of interest were incubated in appropriately diluted homogenates of rat brain or liver in a 0.2 M potassium phosphate buffer. Incubations proceeded at 37° C. for 10 minutes. Incubation was terminated by the addition of acid and the radiolabelled product (phenylacetaldehyde and phenylacetic acid) was extracted and quantified by liquid scintillation counting procedures. Incubations were done in triplicate and incubations containing phenelzine were included for comparison. The percent inhibition of monoamine oxidase-B activity compared to controls containing no drug was calculated.

[2] = molecular target: T2, rat brain monoamine oxidase-A (Rattus norvegicus, UniProt P21396); assay: Monoamine oxidase-A inhibiting activity in vitro (radiochemical, 5-hydroxytryptamine substrate, rat brain homogenate); format: biochemical; conditions: for inhibition at 100 µM: 1 × 10^-4 M; for inhibition at 10 µM: 1 × 10^-5 M; for inhibition at 1 µM: 1 × 10^-6 M; for inhibition at 0.1 µM: 1 × 10^-7 M; for inhibition at 0.01 µM: 1 × 10^-8 M
T2 construct: appropriately diluted homogenates of rat brain or liver; from tissue; host or cells: rat brain or liver homogenate
T2 sequence (P21396 1-526): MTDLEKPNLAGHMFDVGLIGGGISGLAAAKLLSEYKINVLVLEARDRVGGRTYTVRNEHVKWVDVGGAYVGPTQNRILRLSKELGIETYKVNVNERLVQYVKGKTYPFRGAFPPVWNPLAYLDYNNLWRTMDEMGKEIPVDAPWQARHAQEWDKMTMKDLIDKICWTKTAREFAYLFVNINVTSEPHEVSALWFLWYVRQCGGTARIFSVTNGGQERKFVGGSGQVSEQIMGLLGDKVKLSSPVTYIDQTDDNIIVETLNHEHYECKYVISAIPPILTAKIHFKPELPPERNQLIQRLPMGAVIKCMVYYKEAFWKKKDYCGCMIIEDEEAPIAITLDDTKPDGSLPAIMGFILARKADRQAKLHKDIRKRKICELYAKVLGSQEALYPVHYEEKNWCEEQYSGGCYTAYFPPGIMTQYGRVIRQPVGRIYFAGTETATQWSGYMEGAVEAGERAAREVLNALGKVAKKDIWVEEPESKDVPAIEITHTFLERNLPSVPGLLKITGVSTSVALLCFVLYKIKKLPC
Method: Radiolabelled 5-hydroxytryptamine was used as the substrate for monoamine oxidase-A. Various concentrations of the compounds were incubated in appropriately diluted homogenates of rat brain or liver in a 0.2 M potassium phosphate buffer. Incubations proceeded at 37° C. for 10 minutes. Incubation was terminated by the addition of acid and the radiolabelled product (5-hydroxyindoleacetic acid) was extracted and quantified by liquid scintillation counting procedures. Incubations were done in triplicate and incubations containing phenelzine were included for comparison. The percent inhibition of monoamine oxidase-A activity compared to controls without the compounds of the present invention was calculated.

[3] = test system: rat brain and liver monoamine oxidase-A; assay: Monoamine oxidase-A inhibiting activity ex vivo; format: in vivo; conditions: 5.75 μmol/kg, 5 hr, i.p. in 10% DMSO
Method: (§1) Radiolabelled 5-hydroxytryptamine was used as a substrate for monoamine oxidase-A. The compounds of interest were either injected intraperitonealy in DMSO or administered by gavage in water for various periods. The animals were killed by decapitation and the brains and livers immediately removed and frozen until assayed for monoamine oxidase-A activity. Tissues were homogenized and appropriately diluted in buffer prior to incubation. Incubations proceeded at 37° C. for 10 minutes. Incubation was terminated by the addition of acid and the radiolabelled product (5-hydroxyindoleacetaldehyde and 5-hydroxyindoleacetic acid) was extracted and quantified by liquid scintillation counting procedures. Incubations were done in triplicate and incubations containing phenelzine were included for comparison. The percent inhibition of monoamine oxidase-A activity compared to controls containing no drug was calculated.
Values are the mean ± the standard error based on (n) determinations.
Oral doses were administered as 75 μmol/kg on day 1, 75 μmol/kg on
day 2 and the animals were killed 5 hours later.

[4] = test system: MAO-A; assay: MAO-A inhibition ex vivo in DSP-4 treated mice (brain); parameters: species or system mouse
Method: as §1, with “The compounds were evaluated for ex vivo monoamine oxidase-A inhibiting activity using the radiochemical procedure of Lyles, G. A. and Callingham, B. A. (1982). […] Biochem. Pharmacol. 31: 1417-1424. Radiolabelled” for “Radiolabelled”
(§2) Neuroprotectant activity was evaluated by examining the prevention of DSP-4 induced noradrenaline depletion in mouse hippocampus as described in Yu, P. H., Davis, B. A., Fang, J. and Boulton, A. A. (1994), Neuroprotective effect of some monoamine oxidase-B inhibitors against DSP-4 induced noradrenaline depletion in the mouse hippocampus, J. Neurochem. 63: 1820-1828. Briefly, mice were injected (i.p.) with either 20% DMSO or potential neuroprotectants (10 mg/kg in 20% DMSO). One hour later they were injected with either water or DSP-4 (50 mg/kg in water). One week later the mice were killed and the brains removed and the hippocampus dissected out. The hippocampus was frozen and saved for estimation of noradrenaline and other aminergic neurotransmitters and their metabolites as in Sloley, B. D. and Goldberg J. I. (1991), Determination of γ-glutamyl conjugates of monoamines by means of high-performance liquid chromatography with electrochemical detection and application to gastropod tissues, J. Chromatog. 567: 49-56. The rest of the brain was frozen and retained for estimation of monoamine oxidase activities ex vivo as described earlier.

[5] = test system: DSP-4 induced noradrenaline depletion in mouse hippocampus; assay: Prevention of DSP-4 induced noradrenaline depletion in mouse hippocampus; format: in vivo; conditions: 10 mg/kg then DSP-4 50 mg/kg; saline control experiment
[6] = test system: DSP-4 induced noradrenaline depletion in mouse hippocampus; assay: as above; format: in vivo
Method: as §2

[7] = test system: NA, DA, 5-HT, 5-HIAA and DOPAC concentrations in rat hypothalamus; assay: Rat hypothalamus amine and amine metabolite concentrations; format: in vivo; conditions: 5.75 μmol/kg, 5 hr, ip
Method: The effects of various doses of CVT-P040 on the concentrations of hypothalamus amine neurotransmitters and their metabolites were evaluated by examining concentrations of noradrenaline (NA), dopamine (DA), 5-hydroxytryptamine (5-HT), 5-hydroxyindoleacetic acid (5-HIAA) and 3,4-dihydroxyphenylacetic acid (DOPAC) in rat hypothalami 5 hours after the injection of the drug. […] The brains were removed and divided in half. One half of the brain was frozen in isopentane on dry ice and retained for estimates of amino acid neurotransmitter concentrations. The other half had the hypothalamus removed and frozen on dry ice for later estimates of amines and their metabolites according to the method of Sloley, B. D. and Goldberg J. I. (1991), Determination of γ-glutamyl conjugates of monoamines by means of high-performance liquid chromatography with electrochemical detection and application to gastropod tissues, J. Chromatog. 567: 49-56. The rest of the brain was frozen on dry ice for ex vivo examination of MAO activity as described earlier.

[8] = test system: PC12 cells; assay: PC12 neurite outgrowth (neurotrophic effect); format: cell-based; conditions: for Index of Neurite Outgrowth: seven days
Method: The effects of CVT-P040 on neurite outgrowth in cell culture were investigated using an established PC 12 pheochromocytoma cell culture. The effects of CVT-P040 and nerve growth factor on neurite outgrowth were estimated using the method described by Rydel, R. E and Greene, L. A.(1987), Acidic and basic fibroblast growth factors promote stable neurite outgrowth and basic neuronal differentiation in cultures of PC12 cells, J. Neuroscience 7: 3639-3653. Briefly, PC12 cells were seeded and maintained in 100 cm^2 tissue culture dishes at 37° C. in RPMI1640 media containing 1% antibiotics, 10% heat inactivated horse serum and 5% fetal bovine serum in a water saturated atmosphere of 95% air and 5% CO2. The cells were mechanically dislodged and plated into 35 mm collagen-coated tissue culture dishes containing a total of 2.0 ml complete medium at a density of […]. The medium was changed 3 times/week. Cellular responses to CVT-P040 and nerve growth factor (NGF) were determined by counting the number of PC12 cells containing processes. Photographs of the cells were taken after seven days treatment. Two cell fields were chosen in each dish and the photographs developed and printed. […] The neurite index was calculated using the following formula; Neurite Index=total neurite score (ΣS)/ total cell number (ΣN); ΣS=S1×N+S2×N +S3×N+S4×N, where N is the number of cells in each cell field.

[9] = 10 mg/kg i.p. then DSP-4 50 mg/kg, 20% DMSO control experiment

Compound	inhibition at 100 µM [1]	inhibition at 10 µM [1]	inhibition at 1 µM [1]	inhibition at 0.1 µM [1]	inhibition at 0.01 µM [1]	inhibition at 100 µM [2]	inhibition at 10 µM [2]	inhibition at 1 µM [2]	inhibition at 0.1 µM [2]	inhibition at 0.01 µM [2]	further results
C#CCN(N)c1ccccc1 [CVT-P047, N^1 -propargylphenylhydrazine]	100%	94.3%	65.1%	17.9%	0.1%	99.7%	78.2%	15.9%	-3.8%	-2.9%	
C#CCN(N)Cc1ccccc1 [CVT-P046, N^1 -propargylbenzylhydrazine]	100%	92.3%	86.2%	64.9%	18.6%	100%	99.4%	49.4%	18.5%	-5%	
C#CCN(C)[C@H](C)Cc1ccccc1 [(-)-deprenyl, reference compound]											% Inhibition Monoamine Oxidase-A ([3]; brain): -0.6 ± 1.1%; % Inhibition Monoamine Oxidase-A ([3]; liver): 8.0 ± 2.2%; MAO-A % Inhibition [4, 9]: 18.8 ± 6.0%; MAO-A % Inhibition ([4]; 10 mg/kg then DSP-4 50 mg/kg, saline control experiment): 9.9 ± 6.0%; % NA Restoration [5]: 73.1%; NA [5]: 432 ± 13 ng/g; % NA Restoration [6, 9]: 86.6%; NA [6, 9]: 315 ± 34 ng/g; protection against DSP-4 induced noradrenaline depletion / neuroprotective effect ([6]; 10 mg/kg, mouse hippocampus, in words): significantly protected against DSP-4 induced noradrenaline depletion; 5-HIAA [7]: 407 ± 22 ng/g; 5-HT [7]: 821 ± 44 ng/g; DA [7]: 541 ± 44 ng/g; DOPAC [7]: 87 ng/g; NA [7]: 1510 ± 70 ng/g
C#CCNNCCc1ccccc1 [CVT-P039, N^2 -propargylphenelzine]	20.9%	-0.2%				31.6%	-25.8%				
NGF: nerve growth factor (NGF)											Index of Neurite Outgrowth ([8]; NGF 0.1 ng/ml): 0.58 ± 0.03; Index of Neurite Outgrowth ([8]; NGF 0.3 ng/ml): 0.79 ± 0.07; Index of Neurite Outgrowth ([8]; NGF 1.0 ng/ml): 1.16 ± 0.06; neurite outgrowth in PC12 cells ([8]; NGF 0.1, 0.3 and 1.0 ng/ml, in words): increased neurite outgrowth in PC12 cells
